Assay results published in US20190008870A1, “COMPOSITIONS AND METHODS FOR LIPID METABOLISM DISORDER” (JANSFAT BIOTECHNOLOGY CO., LTD., priority 2016, published 2019).

Tests used:
[1] = Body weight and food intake of mice fed with HFD; format: in vivo
Method: In the experiment, C57BL/6J male mice (21-22 g), after fasting, were fed an HFD as a model of hyperlipidemia for 8 weeks. During the 2 month experiments, mice fasted for one night before the experiment was changed from a standard diet (STD) to an HFD and then the mice were randomly divided into 13 groups, including a protection group, 2 control and 10 treatment groups. Six mice were used in each group. […] Liver from the protection group supplemented with KMUP-1 HCl (1 mg/kg/day) were used to determine the HMG CoA reductase expression. Each group of mice had free access to drinking water from week 1 to week 14. Tap water was used to normalize mineral nutrition.
Within 2 months, the 3 day food intake average for each animal was measured. The weight gain and plasma lipid levels of each group were determined and compared to the non-treatment control group. Mouse blood was collected during the daytime by cardiac puncture followed by centrifugation at 90×g (Benchtop Centrifuge, U.S.A.) to separate the serum, and frozen at −80° C., for biochemical analysis using a Hitachi Clinical Analyzer 7070 (Hitachi High-Technologies Co. Tokyo, Japan). Agents used in the assays were obtained from Merck & Co. (Kenilworth, N.J., U.S.A.). Triglyceride (TG), total cholesterol, HDL cholesterol and LDL cholesterol in mouse serum were measured by methods used in the clinic. To measure the hepatic Triglyceride, isolated liver were cut into small chips.

liver fat globules = assay: Amounts and diameter of liver fat globules in IHC-stained liver sections (steatohepatitis); format: in vivo; parameters: Amounts of liver fat globules, p-HSL staining / Amounts of liver fat globules, TNF-α staining / Amounts of liver fat globules, MMP-9 staining / Amounts of liver fat globules, HSL staining / Amounts of fat globules in steatohepatitis, ATGL staining / Amounts of fat globules in steatohepatitis, CD11c-M1 staining / Amounts of fat globules in steatohepatitis, CD209a-M2 staining: unit not given here; details: HFD mice
Method: The diameter of the white bar in the photograph was standardized at […] for measuring the specific diameter of oil globulets in a whole liver slice, observed by microscope, with the aid of Powerpoint PC computer software (Microsoft®, U.S.A.) and printed out by a Hewlett-Packard® printer (U.S.A.). An increase in oil globulet diameter and cell number indicated increasing liver steatosis, i.e. steaotohepatitis. In contrast, decrease in diameter and the number of fat cells indicated the inhibition of steaotohepatitis. […] Hematoxylin-eosin (H&E) and IHC staining of liver were used to assess oil globulet numbers under a microscope.
For IHC of MMP-9/TNFα, HSL/p-HSL/ATGL and eNOS/IL-10, antigen retrieval of de-paraffinated sections was performed in Dako target retrieval solution, pH 9.0, in a vegetable steamer followed by the quenching of endogenous peroxidase activity with 3.0% H2O2 in methanol. Sections were then incubated with specific primary antibodies overnight at 4° C. in a humidified chamber. The antibodies used included rabbit polyclonal anti-eNOS (1:50 dilution) (Abcam, Cambridge, UK) or rabbit monoclonal anti-cleaved caspase-3 (1:50 dilution) (Cell Signaling, U.S.A.). The sections were then examined using a DAKO REAL EnVision™ Detection System kit (DAKO, Carpinteria, Calif., U.S.A.) and counterstained with hematoxylin. Images were obtained through a Nikon Eclipse TE200-S microscope.

ROCK II = assay: Expression of ROCK II (Table 12); details: Control group 100 (%)
PKG = PKG expression/immunoreactivity in HepG2 cells; format: cell-based
Method: HepG2 cells were treated with various concentrations of targeted drugs for 24 hours. Reactions were terminated by washing twice with cold PBS, and the cells were then harvested. Proteins in the whole-cell lysate were homogenized in an ice-cold lysis buffer and a protease inhibitor (Sigma-Aldrich, St. Louis, Mo., U.S.A.). The homogenate was centrifuged at 90,000×g for 15 minutes at 4° C., and supernatant was recovered as the total cellular protein. Cytosolic and membrane fractions of HepG2 cells were prepared using a CNM (Cytosol Nuclear Membrane) compartmental protein extraction kit (BioChain Institute Inc., Hayward, Calif., U.S.A.) according to the manufacturer's instructions. All of the fractionated protein solutions were stored at −80° C. until analysis. To measure the expression levels of proteins by drugs, the total cell protein was extracted after incubation with treatments for 24 hours and then Western blotting analysis was performed as described previously.
To determine that KMUP-1 or targeted drugs can affect PKA, we incubated KMUP-1 (10^−4, 10^−5, 10^−6 M) or targeted drugs with HepG2 cells for 24 hours to measure the protein expressions of PKA/PKG by Western blotting or PKA/PKG and HSL immunoreactivities by fluorescence staining, combined with image scanning in the absence or presence of oxidized LDL (200 μg/mL).

**Q.** With `Cn1c(=O)c2c(ncn2CCN2CCN(c3ccccc3Cl)CC2)n(C)c1=O` [KMUP-1, 7-[2-[4-(2-chlorophenyl)piperazinyl]ethyl]-1,3-dimethylxanthine] as the compound, how does the body-weight gain ([1]; HFD mice 8 weeks, KMUP-1 HCl 2.5, 5 mg/kg p.o., simvastatin 5 mg/kg p.o., compared to the control HFD group (p<0.05)) read?
**A.** reduced

**Q.** And the “final BW (Body weight)” value ([1]; HFD mice, 2.5 mg/kg p.o.)?
**A.** 25.7 ± 0.7 g

**Q.** What about the “final BW (Body weight)” value ([1]; HFD mice, 5 mg/kg p.o.) of the same compound?
**A.** 24.3 ± 0.5 g

**Q.** And the body weight ([1]; HFD mice, drinking 2.5 mg/200 ml water, protection and treatment groups)?
**A.** decreased

**Q.** And the “Amounts of fat globules in steatohepatitis, ATGL staining” value (liver fat globules; Protection group)?
**A.** 28

**Q.** What about the “Amounts of fat globules in steatohepatitis, CD11c-M1 staining” value (liver fat globules; Protection group) of the same compound?
**A.** 26

**Q.** What about the “Amounts of fat globules in steatohepatitis, CD209a-M2 staining” value (liver fat globules; Protection group) of the same compound?
**A.** 41

**Q.** What about the “Amounts of liver fat globules, HSL staining” value (liver fat globules; Protection group) of the same compound?
**A.** 115

**Q.** What about the “Amounts of liver fat globules, MMP-9 staining” value (liver fat globules; Protection group) of the same compound?
**A.** 18

**Q.** And the “Amounts of liver fat globules, TNF-α staining” value (liver fat globules; Protection group)?
**A.** 18

**Q.** What about the “Amounts of liver fat globules, p-HSL staining” value (liver fat globules; Protection group) of the same compound?
**A.** 28

**Q.** What about the “Diameter of fat globules in steatohepatitis, ATGL staining” value (liver fat globules; Protection group) of the same compound?
**A.** 5.5 μm

**Q.** And the “Diameter of fat globules in steatohepatitis, CD11c-M1 staining” value (liver fat globules; Protection group)?
**A.** 8 μm

**Q.** What about the “Diameter of fat globules in steatohepatitis, CD209a-M2 staining” value (liver fat globules; Protection group) of the same compound?
**A.** 9.5 μm

**Q.** What about the “Diameter of liver fat globules, HSL staining” value (liver fat globules; Protection group) of the same compound?
**A.** 9.7 μm

**Q.** What about the “Diameter of liver fat globules, MMP-9 staining” value (liver fat globules; Protection group) of the same compound?
**A.** 8 μm

**Q.** And the “Diameter of liver fat globules, TNF-α staining” value (liver fat globules; Protection group)?
**A.** 8 μm

**Q.** And the “Diameter of liver fat globules, p-HSL staining” value (liver fat globules; Protection group)?
**A.** 3.9 μm

**Q.** What about the “Amounts of fat globules in steatohepatitis, ATGL staining” value (liver fat globules; Treatment group) of the same compound?
**A.** 46

**Q.** And the “Amounts of fat globules in steatohepatitis, CD11c-M1 staining” value (liver fat globules; Treatment group)?
**A.** 41

**Q.** What about the “Amounts of fat globules in steatohepatitis, CD209a-M2 staining” value (liver fat globules; Treatment group) of the same compound?
**A.** 50

**Q.** And the “Amounts of liver fat globules, HSL staining” value (liver fat globules; Treatment group)?
**A.** 116

**Q.** What about the “Amounts of liver fat globules, MMP-9 staining” value (liver fat globules; Treatment group) of the same compound?
**A.** 19

**Q.** And the “Amounts of liver fat globules, TNF-α staining” value (liver fat globules; Treatment group)?
**A.** 19

**Q.** What about the “Amounts of liver fat globules, p-HSL staining” value (liver fat globules; Treatment group) of the same compound?
**A.** 68

**Q.** And the “Diameter of fat globules in steatohepatitis, ATGL staining” value (liver fat globules; Treatment group)?
**A.** 9.8 μm

**Q.** What about the “Diameter of fat globules in steatohepatitis, CD11c-M1 staining” value (liver fat globules; Treatment group) of the same compound?
**A.** 15.5 μm

**Q.** What about the “Diameter of fat globules in steatohepatitis, CD209a-M2 staining” value (liver fat globules; Treatment group) of the same compound?
**A.** 11.8 μm

**Q.** And the “Diameter of liver fat globules, HSL staining” value (liver fat globules; Treatment group)?
**A.** 9.8 μm

**Q.** And the “Diameter of liver fat globules, MMP-9 staining” value (liver fat globules; Treatment group)?
**A.** 9 μm

**Q.** What about the “Diameter of liver fat globules, TNF-α staining” value (liver fat globules; Treatment group) of the same compound?
**A.** 9 μm

**Q.** What about the “Diameter of liver fat globules, p-HSL staining” value (liver fat globules; Treatment group) of the same compound?
**A.** 9.8 μm

**Q.** What about the “ROCK II expression” value (ROCK II) of the same compound?
**A.** 42.5 ± 6.3%

**Q.** What about the PKG immunoreactivity (PKG; HepG2 cells (data not shown)) of the same compound?
**A.** not significantly affected

**Q.** And the “expression of PKG” value (PKG; HepG2 cells, 10, 20, 40 μM, in the presence of LDL (500 μg/mL))?
**A.** increased
